Like-named read-outs stand apart in the source and are kept apart here.
Assays:
[1] = system: E. coli (DH5-α); assay: Growth inhibition of E. coli by methionine analogs, 96-well plate, OD 550 nm over time; format: cell-based; conditions: for Absorbance: 12.5 mM, OD 550 nm
Excerpt: Comparative Minimum Bactericidal Concentration (MBC) results provide estimates of the susceptibility of various test articles against test organisms. A modification of the […] (NCCL) Standardized Protocol “Methods for dilution antimicrobial susceptibility tests for bacteria that grow aerobically” was used in these studies. Sterile Phosphate Buffer Saline (PBS) at pH 7.0 (vehicle) was used as the diluent. Use of such diluent allows for the determination of the intrinsic activity of our test articles in the absence of any interfering molecules. Specifically, each test article was diluted using 2-fold serial dilution in 96-well plate to give a range of concentrations from approximately 50 mM to 0.05 mM in a final volume of 0.1 mL. Each dilution was inoculated with 5×10^5 CFU/mL test bacteria. The initial optical density as absorbance of each well was read at OD 550 nm using ThermoMax plate reader. […] At various time intervals post-treatment, OD reading at 550 nm was recorded at various time intervals. FIG. 1A and Table 1 show time dependent growth inhibition capability of analogs on E. coli at 12.5 mM. For FIGS. 1A and 1B, the 96-well plate format was used to culture E. coli (DH5-α) cells in M9 minimal media supplemented with glucose (M9) or same media supplemented with a range of concentrations of various analogs. Experiments were carried out in duplicate.

[2] = system: CV-1 (African Green Monkey Kidney Cells) cells; conditions: 60 min, pH 7
Description: Preliminary studies of cytotoxicity were performed in a mammalian cell viability assay.
CV-1 cells were propagated in DMEM plus 8% FBS according to supplier's recommendations. CV-1 cells were seeded at 1.5×10^4 cells per well in 96-well plates and incubated overnight at 37° C. On the day of testing, growth medium was aspirated from each well, and 20 μl fresh medium was added per well. Test articles were diluted from 50 mM to 0.05 mM by 2-fold serial dilution using PBS at pH 7.0 for each test article. After which 80 μl of each dilution was added to each well for a total volume of 100 μl per well. Following 60 minutes exposure at 37° C., test articles were aspirated and replaced with fresh 100 μl tissue culture media and incubated for 24 hours at 37° C. Next day cell culture media was removed and cell viability was determined by addition of WST-8 (Dojindo, Japan) reagent and the absorption at 450 nm read spectrophotometrically. Orange-red formazan, which is produced by live cells, is a direct measure of cell viability in this assay.
(§1) Results are expressed as percentage of cells surviving the treatment as compared to PBS.

[3] = system: test bacteria (gram positive and gram negative microorganisms commonly associated with wound infection); assay: Broad spectrum bacterial growth inhibition, all test species together; format: cell-based; conditions: different bacteria in M9 minimal media
Description: Table 2 and FIG. 2 summarizes a series of studies, which were performed to test eradication of bacterial growth using various species (representative strains of gram positive and gram negative microorganisms commonly associated with wound infection). A 96-well plate format was used to culture different bacteria in M9 minimal media supplemented with glucose (M9) or same media supplemented with a range of concentrations of various analogues (Methionine, I-AA and I-AB). Experiments were carried out in duplicate.

[4] = system: L929 cells; conditions: mouse, 60 min
Description: Cytotoxicity is assessed by a colorimetric assay system (Sagripanti J-L, Bonifacino A. Cytotoxicity of Liquid Disinfectants. Surgical Infections, 2000; 1(1): 3-14, the content of which is hereby incorporated by reference, particularly with respect to the experimental methods described therein), using 3′-(phenylamino-carbonyl)-3,4-tetrazo-lium-bis(4-methoxy-6-nitro) benzene sulfonic acid hydrate (XTT), ProCheck™ cell viability assay (Evaluation of a soluble tetrazolium/formazan assay for cell growth and drug sensitivity in culture using human and other tumor cell lines described by Scudiero D A, Shoemaker R A H, Paul K D, Monks A, Tierney S, Nofziger T H, Currens M J, Seniff D, Boyd M R. Cancer Res. 1988 Sep. 1; 48(17):4827-33, the content of which is hereby incorporated by reference, particularly with respect to the experimental methods described therein). Similar approaches for determining the cell viability are used by other investigators. Three cell types are used: […] (L929), primary human skin fibroblast and primary human keratinocyte cells cultured in Dulbecco Modified Eagle's Medium and Keratinocyte defined medium with corresponding growth factors plus antibiotics. Cells are trypsinized and counted under the microscope and seeded at 1000-to-2000 cells per well of a flat-bottom 96-well plate. Cells are allowed to grow overnight at 37° C. Tissue culture media is removed the following day and cells are rinsed with fresh media 1× and then left in 50 μL of tissue culture media. Test articles are prepared as 2-fold dilutions and 200 μL is added into each set of 4-wells (total volume per well is 250 μL). Cells are exposed to test articles for 60 min at room temperature. Immediately after the exposed time, test article from each well is removed and cells are fed with 250 μL of fresh media. Plates are incubated at 37° C. for 18-20 hr. The following day media is removed again and replaced with 100 μL/well of fresh media containing 10/100 μL XTT-reagent. Cells are incubated under growth conditions (5% CO2 at 37° C. humidified incubator), protected from light, until color development is achieved. Absorbance is read at 450 nm with reference wavelength at 750 nm using Molecular Device ThermoMax Plate reader, blanking the plate on the medium-only assay blank wells. Untreated cells receiving XTT reagents-only serve as positive cell proliferation control.
as §1

[5] = system: E. coli (DH5-α); assay: MBC spot inoculation onto gridded agar plate (growth or no growth); format: cell-based; conditions: spot inoculation from well 12, 11 and 10
Description: MBC was determined by plating 5 μL of each sample onto a gridded agar plate (see, for example, FIG. 1B). Plates were then incubated overnight at 37° C., and examined for growth or no growth. The concentration at which there was a complete absence of colony growth was determined to be the MBC. For FIGS. 1A and 1B, the 96-well plate format was used to culture E. coli (DH5-α) cells in M9 minimal media supplemented with glucose (M9) or same media supplemented with a range of concentrations of various analogs. Experiments were carried out in duplicate.

Work on CSCC[C@H](NC(=O)CN)C(=O)NO.Cl [I-AB, (S)-2-(2-aminoacetamido)-N-hydroxy-4-(methylthio)butanamide hydrochloride] yielded an Absorbance ([1]; E. coli, well 12, time 0 hrs) of 0.085, an Absorbance ([1]; E. coli, well 12, time 1 hrs) of 0.095 and an Absorbance ([1]; E. coli, well 12, time 2 hrs) of 0.111. It also gave an Absorbance ([1]; E. coli, well 12, time 3 hrs) of 0.104, an Absorbance ([1]; E. coli, well 12, time 3.75 hrs) of 0.090 and an Absorbance ([1]; E. coli, well 12, time 5 hrs) of 0.094. It also gave an Absorbance ([1]; E. coli, well 12, time 6.5 hrs) of 0.090, an Absorbance ([1]; E. coli, well 12, time 7.25 hrs) of 0.089 and an Absorbance ([1]; E. coli, well 12, time 23 hrs) of 0.091. For the same molecule, the “Concentration dependence of bacterial growth inhibition” value ([1]; E. coli, spot inoculated agar plate (FIG. 1B)) was “concentration-dependent”, the “E. coli growth inhibition” value ([1]; as compared to M9 and other analogs) was “significantly inhibited” and the “Percentage of Surviving CV-1 cells relative to PBS” value ([2]; 0.1 mM) was 97%. The “Percentage of Surviving CV-1 cells relative to PBS” value ([2]; 0.2 mM) was 94%, the “Percentage of Surviving CV-1 cells relative to PBS” value ([2]; 0.39 mM) was 97% and the “Percentage of Surviving CV-1 cells relative to PBS” value ([2]; 0.78 mM) was 97%. For the same molecule, the “Percentage of Surviving CV-1 cells relative to PBS” value ([2]; 1.56 mM) was 98%, the “Percentage of Surviving CV-1 cells relative to PBS” value ([2]; 3.13 mM) was 100% and the “Percentage of Surviving CV-1 cells relative to PBS” value ([2]; 6.25 mM) was 100%. The “Percentage of Surviving CV-1 cells relative to PBS” value ([2]; 12.5 mM) was 101%, the “Percentage of Surviving CV-1 cells relative to PBS” value ([2]; 25 mM) was 100% and the “Percentage of Surviving CV-1 cells relative to PBS” value ([2]; 50 mM) was 60%. The “Concentration dependence of bacterial growth inhibition” value [3] was “concentration-dependent”, the “Time within which most bacteria were killed” value [3] was no more than 24 h and the “Percentage of Surviving L929 cells relative to control” value ([4]; 0.1 mM) was 99%. The “Percentage of Surviving L929 cells relative to control” value ([4]; 0.2 mM) was 92%, the “Percentage of Surviving L929 cells relative to control” value ([4]; 0.39 mM) was 88% and the “Percentage of Surviving L929 cells relative to control” value ([4]; 0.78 mM) was 90%. The “Percentage of Surviving L929 cells relative to control” value ([4]; 1.56 mM) was 89%, the “Percentage of Surviving L929 cells relative to control” value ([4]; 3.13 mM) was 86% and the “Percentage of Surviving L929 cells relative to control” value ([4]; 6.25 mM) was 88%. For the same molecule, the “Percentage of Surviving L929 cells relative to control” value ([4]; 12.5 mM) was 89%, the “Percentage of Surviving L929 cells relative to control” value ([4]; 25 mM) was 92% and the “Percentage of Surviving L929 cells relative to control” value ([4]; 50 mM) was 75%. For the same molecule, the “Re-growth after spot inoculation on agar plate” value [5] was “absence of re-growth”.
